Patent publication US20240344241A1, “PROTEINACEOUS MOLECULES AND USES THEREFOR” (THE UNIVERSITY OF QUEENSLAND, priority 2021, published 2024)
Bridge positions count the residues as written; N and C are the ends. Peptide text beside a SMILES is read from it.

What was measured:
[1] = biological target: T1, bovine trypsin (Bos taurus, UniProt P00760); assay: Surface plasmon resonance binding to trypsin
T1 sequence (P00760 24-246): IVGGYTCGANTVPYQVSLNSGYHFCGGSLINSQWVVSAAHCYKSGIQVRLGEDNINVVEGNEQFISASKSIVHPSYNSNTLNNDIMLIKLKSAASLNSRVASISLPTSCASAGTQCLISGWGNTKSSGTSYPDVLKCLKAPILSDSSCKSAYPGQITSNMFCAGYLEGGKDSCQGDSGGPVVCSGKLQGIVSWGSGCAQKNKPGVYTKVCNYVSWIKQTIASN

[2] = biological target: T2, Human trypsin (Homo sapiens, UniProt P07477); assay: Trypsin competitive inhibition assay; type: biochemical; conditions: Table 10; read-out: Ki Trypsin
T2 construct: purchased Sigma-Aldrich; host or cells: purified from human tissue
In short: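 Competitive inhibition: serially diluted inhibitors were pre-incubated with enzyme at room temperature to equilibrium in 0.1 M Tris-HCl pH 8.0, 0.1 M NaCl, 10 mM CaCl2, 0.005% Triton X-100. Substrate hydrolysis was followed by pNA absorbance (405 nm) or MCA fluorescence (ex 360/em 460 nm); Morrison Ki by non-linear regression.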

[3] = biological target: T3, Human plasmin (Homo sapiens, UniProt P00747); assay: Plasmin inhibition assay; type: biochemical
T3 construct: Human cationic trypsin and human plasmin were obtained from Sigma-Aldrich, and recombinant human matriptase was sourced from R&D Systems; purchased Sigma-Aldrich; host or cells: purified from human plasma
Method: (§1) The activity of acyclic and cyclic MCoFx1-5 and analogues thereof was assessed in competitive inhibition assays, as previously described in Swedberg et al. (2016) J Med Chem, 59: 7287-7292. Human β-FXIIa was obtained from Molecular Innovations, together with human FXa, human FXIa, human α-thrombin, and human plasma kallikrein. Human cationic trypsin and human plasmin were obtained from Sigma-Aldrich, and recombinant human matriptase was sourced from R&D Systems. Recombinant human urokinase (uPA) and recombinant human tissue plasminogen activator (tPA) were expressed in Expi293 cells, as previously described in Li et al. (2019) Chembiochem, 20: 46-50. FXIIa inhibition assays were performed in clear, low-binding 96-well plates using 250 μL (final volume) of assay buffer (0.1 M Tris-HCl pH 8.0, 0.1 M NaCl, 10 mM CaCl2 and 0.005% Triton X-100). Inhibitors were serially diluted and incubated with 10 nM FXIIa at room temperature to reach equilibrium. After adding 100 μM Ac-QRFR-pNA substrate (KM=162 μM), enzymatic activity was measured by monitoring release of the pNA moiety using a TECAN infinite M1000 Pro plate reader (A=405 nm, reading interval, 10 s; assay time course, 7 min). Assays were conducted in three times in duplicate. Substrate kinetic constants (Michaelis-Menten) and inhibition constants (Morrison K) were determined by non-linear regression using Prism 7 (GraphPad). Selectivity assays with off-target proteases were performed in a similar way, except that different concentrations of enzyme and substrate were used, as indicated in Table 16. For assays using a fluorescent substrate (peptide-4-methylcoumaryl-7-amide, MCA), black low-binding 96-well plates were used and activity was measured using a TECAN infinite M1000 pro plate reader (λex 360 nm, λem 460 nm, reading interval, 30 s; assay time course, 5-30 min).

[4] = biological target: T4, Rec. human tPA (Homo sapiens, UniProt P00750); assay: tPA inhibition assay; type: biochemical
T4 construct: made in house; host or cells: Expi293 cells
Method: as §1

[5] = tested on: clotting via the intrinsic pathway; assay: Activated partial thromboplastin time (aPTT) assay in human plasma; type: biochemical
Text: (§2) Citrated, platelet-poor plasma samples from healthy adults were collected, prepared, and stored using previously established collection protocols, such as in Zdenek et al. (2019) Toxicol in Vitro, 58: 97-109.
(§3) Standard coagulation assays were used to determine the effect of the inhibitors on the clotting time of human plasma. Activated partial thromboplastin time (aPTT) uses a Kaolin reagent (clay) to activate the intrinsic/contact pathway of the coagulation cascade, whereas prothrombin time (PT) uses Neoplastine (lyophilized thromboplastin prepared from rabbit cerebral tissue) to activate the extrinsic/tissue-factor pathway of the coagulation cascade. A minor adjustment was made to both tests (addition of 25 μL inhibitor or buffer; refer to Table 17) to accommodate the addition of an inhibitor without changing the total volume (and therefore relative ratios of additives) of the assay. Concentrations of inhibitor are reported as the concentration at the point of incubation in the assay, i.e. not taking into account the addition of the start reagent (calcium for aPTT, or Neoplastine for PT).
(§4) Clotting time (seconds) of plasma was automatically measured using a STA-R Max® analyzer (Stago, Asnieres sur Seine, France). Measurements were conducted using a viscosity-based (mechanical) detection system, whereby opposing magnets oscillate a small metal spherical pellet inside the test cuvette (250 μL total volume) until a clot is formed. Dilution of the inhibitor in Owren-Koller (OK) buffer for dose-response curves was performed automatically by the machine. Reagents were kept at 15-19° C. in the machine during experimentation and otherwise stored at 4° C. All tests were performed in triplicate.

[6] = tested on: clotting via the extrinsic pathway; assay: Prothrombin time (PT) assay in human plasma; type: biochemical; conditions: at 10 μM
Text: as §2, §3, §4

T4 sequence (P00750 36-562): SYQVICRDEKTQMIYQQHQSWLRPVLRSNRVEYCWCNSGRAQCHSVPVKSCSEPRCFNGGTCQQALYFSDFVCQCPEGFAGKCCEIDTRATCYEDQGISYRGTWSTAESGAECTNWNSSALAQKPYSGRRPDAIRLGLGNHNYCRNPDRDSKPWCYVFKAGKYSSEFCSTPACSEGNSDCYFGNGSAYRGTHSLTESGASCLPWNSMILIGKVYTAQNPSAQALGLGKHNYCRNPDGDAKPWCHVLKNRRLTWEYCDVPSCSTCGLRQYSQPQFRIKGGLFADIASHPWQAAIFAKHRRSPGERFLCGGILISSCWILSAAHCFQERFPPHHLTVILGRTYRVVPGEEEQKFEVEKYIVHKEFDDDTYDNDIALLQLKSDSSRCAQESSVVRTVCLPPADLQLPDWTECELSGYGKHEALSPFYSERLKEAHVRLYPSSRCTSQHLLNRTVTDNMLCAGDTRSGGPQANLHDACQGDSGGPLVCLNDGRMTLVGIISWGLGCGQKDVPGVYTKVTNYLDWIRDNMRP
T3 sequence (P00747 581-810 limits assumed): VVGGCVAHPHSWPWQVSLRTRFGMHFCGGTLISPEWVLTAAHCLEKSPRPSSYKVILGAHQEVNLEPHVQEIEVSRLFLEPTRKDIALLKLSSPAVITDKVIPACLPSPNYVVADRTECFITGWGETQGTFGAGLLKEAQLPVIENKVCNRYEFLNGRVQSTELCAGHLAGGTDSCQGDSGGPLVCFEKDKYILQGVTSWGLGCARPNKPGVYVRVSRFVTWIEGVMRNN
T3 sequence (P00747 97-580 partner limits assumed): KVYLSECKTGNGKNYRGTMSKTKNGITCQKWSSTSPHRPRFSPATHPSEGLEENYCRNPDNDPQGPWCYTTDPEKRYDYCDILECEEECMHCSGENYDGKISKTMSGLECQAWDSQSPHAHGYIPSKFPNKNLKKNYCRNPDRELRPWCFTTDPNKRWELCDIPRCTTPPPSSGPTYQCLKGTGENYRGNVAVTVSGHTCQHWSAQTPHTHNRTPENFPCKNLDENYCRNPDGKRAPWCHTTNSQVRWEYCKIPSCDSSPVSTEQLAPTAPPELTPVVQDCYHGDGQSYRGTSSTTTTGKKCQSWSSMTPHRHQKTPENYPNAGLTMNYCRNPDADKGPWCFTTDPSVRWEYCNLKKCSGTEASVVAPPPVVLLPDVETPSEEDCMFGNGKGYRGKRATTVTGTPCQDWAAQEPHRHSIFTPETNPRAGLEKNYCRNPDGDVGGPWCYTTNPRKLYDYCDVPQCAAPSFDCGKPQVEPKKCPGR

CC[C@H](C)[C@@H]1NC(=O)CNC(=O)CNC(=O)[C@H](CC(=O)O)NC(=O)[C@H](Cc2ccc(O)cc2)NC(=O)CNC(=O)[C@H](CO)NC(=O)CNC(=O)[C@@H]2CSSC[C@@H]3NC(=O)[C@H](CC(=O)O)NC(=O)[C@H](CO)NC(=O)[C@H](CC(=O)O)NC(=O)[C@H](CCCNC(=N)N)NC(=O)[C@H](CCCNC(=N)N)NC(=O)[C@@H]4CSSC[C@H](NC(=O)[C@H]([C@@H](C)CC)NC(=O)[C@H](CSSC[C@H](NC1=O)C(=O)N1CCC[C@H]1C(=O)N[C@@H](CCCNC(=N)N)C(=O)N[C@@H]([C@@H](C)CC)C(=O)NCC(=O)N[C@@H](CCCNC(=N)N)C(=O)N[C@@H](CC(C)C)C(=O)N4)NC(=O)[C@H](C)NC(=O)CNC(=O)[C@@H]1CCCN1C3=O)C(=O)N[C@@H](CCCNC(=N)N)C(=O)N[C@@H](C)C(=O)N[C@@H]([C@@H](C)O)C(=O)N[C@@H](CCCNC(=N)N)C(=O)N[C@@H](Cc1ccccc1)C(=O)N2 [MCoFx1 cyclic] (cyclo(ACICRATRFCGSGYDGGICPRIGRLCRRDSDCPG); disulfide 2-19, 4-26, 10-32)
Kd ([1]; Table 8, cyclic form, read-out: KD (nM) Trypsin Cyclic): 31.5 nM | fold lower affinity for trypsin compared with MCoTI-II ([1]; ratio of KD values): 300 fold | Ki [2]: 1110 nM | inhibition at 5 µM ([3]; at 5 μM, read-out: percent inhibition Plasmin): 13% | IC50 ([3]; read-out: IC50 Plasmin): > 5000 nM | inhibition at 5 µM ([4]; at 5 μM, read-out: percent inhibition tPA): 0% | IC50 ([4]; read-out: IC50 tPA): > 5000 nM | EC2× (concentration required to double the clotting time) [5]: 702 nM | clotting time compared to control, PT assay [6]: No significant differences in clotting time compared to control assays
